Measurements taken from patent US7375124B2, “Use of α-phenylthiocarboxylic and α-phenyloxycarboxylic acids with serum-glucose-lowering and serum-lipid-lowering activity” (Sigma-Tau Industrie Farmaceutiche Riunite S.p.A., priority 2002, dated 2008).

Legend:
C57BL/KsJ db/db mouse [1] = conditions: in vivo
C57BL/KsJ db/db mouse [2] = assay: Antidiabetic and serum-lipid-lowering activity in the db/db mouse (Experiments I and II); conditions: Experiment I; for Glucose: blood
mPPARαLBD/Gal4DBD = biological target: T1, mPPARαLBD/Gal4DBD (Mus musculus, UniProt P23204); assay: Transactivation assay mediated by mPPARαLBD/Gal4DBD in COS-7 cells (CAT reporter); type: cell-based
T1 construct: expressed in transfected cells; host or cells: COS-7 (monkey kidney fibroblasts)
T1 sequence (P23204 239-466 limits assumed): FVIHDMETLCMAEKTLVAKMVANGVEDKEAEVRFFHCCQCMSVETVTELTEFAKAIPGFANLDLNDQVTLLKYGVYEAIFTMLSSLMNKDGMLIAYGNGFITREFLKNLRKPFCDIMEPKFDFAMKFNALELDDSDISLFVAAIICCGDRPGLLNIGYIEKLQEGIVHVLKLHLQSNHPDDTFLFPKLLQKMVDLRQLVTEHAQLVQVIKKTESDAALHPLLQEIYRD
Text: In this model a transactivation assay is used in which the expression vector mPPARαLBD/Gal4 DBD allows the synthesis by the transfected cell of a chimeric protein, in which the ligand binding domain (LBD) of PPARα is fused with the DNA binding domain (DBD) of the transcription factor GAL4 of yeast [Luckow B. et al., Nucleic Acids Res. 15, 5490 (1987)]. Simultaneously, a plasmid (pG5CAT) is transfected which contains 5 copies of the high-affinity binding site for GAL4 (also called UAS, upstream activating sequence), upstream of the viral promoter E1b fused with the CAT reporter gene [Moya-Camarena S. Y. et al., J. Lipid Res. 40 (8), 1426-33 (1999)]. This model eliminates interference by possible endogenous receptors.
This is due to the fact that the activation of E1b and the production of CAT will occur exclusively thanks to the interaction of GAL4 DBD with its own response element (UAS). Since the transcription factor GAL4 is not expressed in […] cells, transactivation of the reporter gene can take place only when, as a result of the interaction of a ligand with the LBD of PPARα, the chimeric protein PPARα/GAL4 recognises the UAS sequence on the plasmid pG5CAT. Together with the expression vector and the reporter vector the cells were also transfected with the plasmid pCH110 which provides the internal control for the efficiency of transfection and the normalisation of the results.
A monkey kidney fibroblast cell line (COS-7) was used [Elbrecht A. et al., J. Biol. Chem. 274 (12), 7913-22 (1999)]. The cells were co-transfected with the reporter vector, the expression plasmid coding for the fusion protein Gal4 DBD/PPARαLBD and the control vector pCH110. The cells were exposed to increasing concentrations of the study compounds and CAT activity was evaluated. Untreated cells were used as controls.
Monkey kidney fibroblasts (COS-7) were cultured according to the usual cell culture techniques, at 37° C. in a 5% v/v carbon dioxide atmosphere using as the growth medium DMEM (Dulbecco's modified Eagle's medium) modified with 3.7 g/l of sodium bicarbonate, 4 mM L-glutamine, 4.5 g/l of glucose, 1 mM sodium pyruvate and 10% v/v of foetal bovine serum, in the presence of streptomycin 100 μg/ml and penicillin 100 U/ml final.
The cells were co-transfected using the transfection reagent FuGENE6 (Roche), consisting of a defined mixture of lipids capable of complexing the DNA and of transporting it into the cells. Twenty-four hours prior to transfection the cells were plated at a density of 1.2×10^5 cells/well in 12-well plates and maintained at 37° C. in a 5% v/v CO2 atmosphere. […] Briefly, the transfection mixture containing 0.8 μg of the expression vector, 1.6 μg of the reporter vector, 0.8 μg of the control vector and 9 μl of the FuGENE6 reagent per well was added directly to the cells in the presence of culture medium devoid of serum. After 5 hours, the transfection medium was replaced by 1 ml of culture medium complete with serum and antibiotics in the presence or absence of the molecules to be tested at 3 different concentrations (2, 20 and 100 μM). Wy-14,643 (2 μM), a known ligand of PPARα, was used as the positive reference compound.
After 48 hours' incubation at 37° C. in a 5% v/v CO2 atmosphere, the cells were washed twice with 1 ml of phosphate buffer (PBS) and removed mechanically from the wells in TEN buffer (Tris[hydroxymethyl]aminomethane 10 mM pH 8, ethylenediamine-tetraacetic acid 1 mM pH 8, sodium chloride 0.1 M). After centrifuging for 3 minutes at 1000 rpm, the cells were resuspended in 65 μl of lysis buffer (Tris-HCl 0.25 M, pH 8) and then lysed thanks to three rapid freeze-thaw cycles. The insoluble cellular materials (debris) were removed by centrifuging at 15,000 rpm for 15 minutes at 4° C., and the supernatant was recovered and used for the CAT and β-galactosidase activity assays. […]

| Structure (SMILES) | Variation % (final b.w.) vs control (C57BL/KsJ db/db mouse [1]) | Variation % (initial b.w.) vs control (C57BL/KsJ db/db mouse [1]) | Variation % (glucose) vs control (C57BL/KsJ db/db mouse [2]; after 12 days' treatment, feeding state, approx. 15 hours after last treatment) [%] | Variation % (glucose) vs control (C57BL/KsJ db/db mouse [2]; after 18 days' treatment, fasting 18 hours, 6 hours after last treatment) [%] | Variation % (HDL-cholesterol) vs control (C57BL/KsJ db/db mouse [2]; after 25 days' treatment) [%] | Variation % (triglycerides) vs control (C57BL/KsJ db/db mouse [2]; after 25 days' treatment) [%] | Glucose (C57BL/KsJ db/db mouse [2]; after 18 days' treatment, fasting 18 hours, 6 hours after last treatment, mean ± S.E.) | Glucose (C57BL/KsJ db/db mouse [2]; db/db mice, oral twice daily, after 12 days' treatment, feeding state, approx. 15 hours after last treatment, mean ± S.E.) [mg/dL] | Final b.w. (C57BL/KsJ db/db mouse [2]; final body weight after 25 days' treatment, postabsorption condition, mean ± S.E.) | Initial b.w. (C57BL/KsJ db/db mouse [2]; initial body weight, postabsorption condition, mean ± S.E.) [g] | Activation of reporter gene CAT as a percentage of the reference compound (WY-14,643 2 μM = 100%) (mPPARαLBD/Gal4DBD; 2 μM) [%] | Activation of reporter gene CAT as a percentage of the reference compound (WY-14,643 2 μM = 100%) (mPPARαLBD/Gal4DBD; 20 μM) [%] | Activation of reporter gene CAT as a percentage of the reference compound (WY-14,643 2 μM = 100%) (mPPARαLBD/Gal4DBD; 100 μM) [%] |
| --- | --- | --- | --- | --- | --- | --- | --- | --- | --- | --- | --- | --- | --- |
| CN(CCOc1ccc(CC2SC(=O)NC2=O)cc1)c1ccccn1 (stereo not shown) [Rosiglitazone, rosiglitazone, reference compound] | +49% | +3% | −25 | −35 | −20 | −54 | 225 ± 27▪ mg/dl | 365 ± 64 | 42.1 ± 2.5Δ g | 32.6 ± 1.4 |  |  |  |
| COC(=O)C(C)(C)Sc1cccc(OCCc2ccc3ccccc3c2)c1 [Example 10, methyl 2-[3-[2-(2-naphthyl)ethoxy]phenylthio]isobutyrato] |  |  |  |  |  |  |  |  |  |  | 98.1 | 360 | 462.7 |
| COC(=O)C(C)(C)Sc1cccc(OCCc2ccc(Cl)cc2Cl)c1 [Example 4, methyl 2-[3-(2-(2,4-dichlorophenyl)ethoxy)phenylthio]isobutyrate] |  |  |  |  |  |  |  |  |  |  | 113.1 | 284.9 | 421 |
